Test results published in US9586907B2, “Isothiocyanate compounds, pharmaceutical compositions, and uses thereof” (priority 2006, dated 2017).
Converted amounts (≈) assume the structure as drawn. Marks after values point to notes of the source that are not given here.

Columns and labels:
M. cansassi = assay: MIC, M. cansassi; assay type: cell-based; conditions: M. cansassi
[1] = tested on: Candida albicans 5108^mdr; assay: Anti-fungal MIC, Candida albicans 5108^mdr; conditions: Candida albicans 5108^mdr
M. tuberculosis H37Rv = assay: MIC, M. tuberculosis H37Rv; assay type: cell-based
Experimental: (§1) Next, several of the bifunctional ITC compounds were tested for their ability to inhibit the growth of some clinical isolates of Mycobacteria, the results of which are summarized in Table 3 below.

M. bovis BCG = assay: microbe, parasite or virus in culture; assay type: cell-based
[2] = tested on: Aspergillus fumigatus Rit 11; assay: Anti-fungal MIC, Aspergillus fumigatus Rit 11; conditions: Aspergillus fumigatus Rit 11
Candida dlabrata 250^mdr = assay: Anti-fungal MIC, Candida dlabrata 250^mdr; conditions: Candida dlabrata 250^mdr; MIC determined at 48 hours of growth
M. avium = assay: MIC, M. avium; assay type: cell-based; conditions: M. avium
[3] = tested on: human acute monocytic leukemia cells (THP1 cells); assay: Growth of THP1 cells, MTT metabolic assay; assay type: cell-based; conditions: highest dosage of 32 μg/mL, 24 hours
Experimental: THP1 cells were either mock-treated (DMSO vehicle alone), or treated with increasing doses of new compounds 37 and 45, from 0 to 32 μg/mL. Cells were incubated in the presence of compound for 24 hours, and subsequently were assayed for total cell viability using an MTT, metabolic assay.

M. scrofulaceum = assay: MIC, M. scrofulaceum; assay type: cell-based; conditions: M. scrofulaceum
[4] = tested on: Candida parapsilosis 22019; assay: Anti-fungal MIC, Candida parapsilosis 22019; conditions: Candida parapsilosis 22019
M. tuberculosis 210 = assay: MIC, M. tuberculosis 210; assay type: cell-based
Experimental: as §1

Candida albicans 90030 = assay: Anti-fungal MIC, Candida albicans 90030; conditions: Candida albicans 90030
M. tuberculosis W = assay: MIC, M. tuberculosis W; assay type: cell-based
Experimental: as §1

M. tuberculosis CDC1551 = assay: MIC, M. tuberculosis CDC1551; assay type: cell-based
Experimental: as §1

M. tuberculosis P = assay: MIC, M. tuberculosis P; assay type: cell-based
Experimental: as §1

M. fortuitum = assay: MIC, M. fortuitum; assay type: cell-based; conditions: M. fortuitum
M. intracellularie = assay: MIC, M. intracellularie; assay type: cell-based; conditions: M. intracellularie
Mycobacteria = assay type: cell-based; conditions: Table 3
[5] = In vivo tolerance in mice; conditions: highest dose, 50 mg/kg
M. tuberculosis AB = assay: MIC, M. tuberculosis AB; assay type: cell-based
Experimental: as §1

[6] = tested on: human peritoneal macrophages infected with Mycobacterium tuberculosis H37Rv strain; assay: In vitro infection model, cytotoxicity; conditions: up to 1 μg/mL; Rifampicin control
Candida albicans 90028 = assay: Anti-fungal MIC, Candida albicans 90028; conditions: Candida albicans 90028
[7] = tested on: Cryptococcus neoformans CNH99; assay: Anti-fungal MIC, Cryptococcus neoformans CNH99; conditions: Cryptococcus neoformans CNH99
[8] = tested on: Aspergillus fumigatus Rit 21; assay: Anti-fungal MIC, Aspergillus fumigatus Rit 21; conditions: Aspergillus fumigatus Rit 21
[9] = tested on: Mycobacterium tuberculosis H37Rv strain; assay: In vitro infection model, bacterial growth inhibition in infected macrophages; assay type: cell-based; conditions: M. tuberculosis H37Rv; up to 1 μg/mL; Rifampicin control
Text: Rifampicin was used as a control for this experiment.

[10] = tested on: Aspergillus fumigatus Rit 1; assay: Anti-fungal MIC, Aspergillus fumigatus Rit 1; conditions: Aspergillus fumigatus Rit 1
M. tuberculosis W4 = assay: MIC, M. tuberculosis W4; assay type: cell-based
Experimental: as §1

virus (92TH594) = assay: Viral proliferation in PBMC, p24 viral antigen; assay type: cell-based; conditions: for P24 values: PBMC

Question: Which MIC (M. cansassi) does the source give for `OCCCCCCCCN=C=S` [Compound 45, HO—(CH2)8—N═C═S] here?
Answer: Its MIC is 1 mg/L (≈ 5.34 µM).

Question: And the “Anti-Fungal Activity (MIC)” value [1]?
Answer: The value was 4 mg/L.

Question: And the MIC (M. tuberculosis H37Rv)?
Answer: Its MIC is 1 mg/L (≈ 5.34 µM).

Question: And the MIC (M. bovis BCG)?
Answer: Its MIC is 0.5 mg/L (≈ 2.67 µM).

Question: And the “Anti-Fungal Activity (MIC)” value [2]?
Answer: The value was 8 mg/L.

Question: And the “Anti-Fungal Activity (MIC)” value (Candida dlabrata 250^mdr)?
Answer: Its value is 4** μg/mL.

Question: What about the MIC (M. avium) of the same molecule?
Answer: The MIC was 4 mg/L (≈ 21.4 µM).

Question: What about the “effect on growth of THP1 cells” value [3] of the same molecule?
Answer: The value was “not able to affect the growth of THP1 cells”.

Question: And the MIC (M. scrofulaceum)?
Answer: The MIC was 8 mg/L (≈ 42.7 µM).

Question: And the “Anti-Fungal Activity (MIC)” value [4]?
Answer: The value was 8 mg/L.

Question: What about the MIC (M. tuberculosis 210) of the same molecule?
Answer: Its MIC is 1 mg/L (≈ 5.34 µM).

Question: What about the “Anti-Fungal Activity (MIC)” value (Candida albicans 90030) of the same molecule?
Answer: The value was 4 mg/L.

Question: What about the MIC (M. tuberculosis W) of the same molecule?
Answer: The MIC was 1 mg/L (≈ 5.34 µM).

Question: What about the MIC (M. tuberculosis CDC1551) of the same molecule?
Answer: Its MIC is 2 mg/L (≈ 10.7 µM).

Question: And the “Anti-Fungal Activity (MIC)” value (Candida crusei 6258^mdr)?
Answer: The value was 4 mg/L.

Question: And the MIC (M. tuberculosis P)?
Answer: Its MIC is 2 mg/L (≈ 10.7 µM).

Question: What about the MIC (M. fortuitum) of the same molecule?
Answer: Its MIC is 4 mg/L (≈ 21.4 µM).

Question: What about the MIC (M. intracellularie) of the same molecule?
Answer: The MIC was 4 mg/L (≈ 21.4 µM).

Question: And the “activity against Mycobacteria (in words)” value (Mycobacteria)?
Answer: The value was “highest activity”.

Question: What about the “toxicity in treated mice” value [5] of the same molecule?
Answer: The value was “no toxicity was observed”.

Question: And the MIC (M. tuberculosis AB)?
Answer: The MIC was 2 mg/L (≈ 10.7 µM).

Question: What about the “cytotoxicity in infected macrophages” value [6] of the same molecule?
Answer: The value was “low cytotoxicity, similar to Rifampicin”.

Question: What about the “Anti-Fungal Activity (MIC)” value (Candida albicans 90028) of the same molecule?
Answer: Its value is 8 mg/L.

Question: And the “Anti-Fungal Activity (MIC)” value [7]?
Answer: The value was less than 1 mg/L.

Question: What about the “Anti-Fungal Activity (MIC)” value [8] of the same molecule?
Answer: The value was 8 mg/L.

Question: What about the “growth inhibitory activity in infected macrophages” value [9] of the same molecule?
Answer: The value was “comparabale with the inhibition observed for Rifampicin”.

Question: What about the “Anti-Fungal Activity (MIC)” value [10] of the same molecule?
Answer: Its value is 8 mg/L.

Question: And the MIC (M. tuberculosis W4)?
Answer: Its MIC is 1 mg/L (≈ 5.34 µM).

Question: What about the “difference in antiviral activity with and without preincubation prior to viral infection” value (virus (92TH594); Tables 5 and 6 compared) of the same molecule?
Answer: Its value is “no detectable difference”.

Question: And the P24 values (virus (92TH594); compound 2.5 μg/ml, added to the cells after viral infection)?
Answer: The P24 values was 975 pg/mL.

Question: What about the P24 values (virus (92TH594); compound 2.5 μg/ml, added to the cells before viral infection) of the same molecule?
Answer: Its P24 values is 960 pg/mL.

Question: And the P24 values (virus (92TH594); compound 10 μg/ml, added to the cells after viral infection)?
Answer: The P24 values was 7 pg/mL.

Question: What about the P24 values (virus (92TH594); compound 10 μg/ml, added to the cells before viral infection) of the same molecule?
Answer: The P24 values was 6 pg/mL.
